Test system: Key Broadleaf Weed and Crop Species
Assay: Post-emergent Test II herbicidal activity (Table 5)
Assay type: in vivo
Details: post-emergence, 336 h; ABUTH: velvetleaf (Abutilon theophrasti); application rate 70 g ai/ha; post-emergent; 14 days after application; read-out: Visual Growth Reduction (%) 14 Days After Application, ABUTH
In short: (§1)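 Injury was rated visually 14 d after treatment on a 0–100% scale against untreated controls. Test compounds, formulated with crop oil concentrate and surfactant and serially diluted down to 1/16× of the top rate, were applied by track sprayer at 187 L/ha onto first- to second-true-leaf seedlings.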

| SMILES | pest or weed control at 70 g/ha [%] |
| --- | --- |
| COc1c(N)nc(-c2cc(F)c(C)cc2F)nc1C(=O)O [Compound 201] | 30 to 44 |

Same assay, conditions: post-emergence, 336 h; ABUTH: velvetleaf (Abutilon theophrasti); application rate 140 g ai/ha; post-emergent; 14 days after application; read-out: Visual Growth Reduction (%) 14 Days After Application, ABUTH

| SMILES | pest or weed control at 140 g/ha [%] |
| --- | --- |
| COc1c(N)nc(-c2cc(F)c(C)cc2F)nc1C(=O)O [Compound 201] | 60 to 74 |

Same assay, conditions: post-emergence, 336 h; AMARE: redroot pigweed (Amaranthus retroflexus); application rate 70 g ai/ha; post-emergent; 14 days after application; read-out: Visual Growth Reduction (%) 14 Days After Application, AMARE

| SMILES | pest or weed control at 70 g/ha [%] |
| --- | --- |
| COc1c(N)nc(-c2cc(F)c(C)cc2F)nc1C(=O)O [Compound 201] | 30 to 44 |

Same assay, conditions: post-emergence, 336 h; AMARE: redroot pigweed (Amaranthus retroflexus); application rate 140 g ai/ha; post-emergent; 14 days after application; read-out: Visual Growth Reduction (%) 14 Days After Application, AMARE

| SMILES | pest or weed control at 140 g/ha [%] |
| --- | --- |
| COc1c(N)nc(-c2cc(F)c(C)cc2F)nc1C(=O)O [Compound 201] | 60 to 74 |

Same assay, conditions: post-emergence, 336 h; BRSNN: oilseed-rape, canola (Brassica napus); application rate 70 g ai/ha; post-emergent; 14 days after application; read-out: Visual Growth Reduction (%) 14 Days After Application, BRSNN

| SMILES | pest or weed control at 70 g/ha [%] |
| --- | --- |
| COc1c(N)nc(-c2cc(F)c(C)cc2F)nc1C(=O)O [Compound 201] | 95 to 100 |

Same assay, conditions: post-emergence, 336 h; BRSNN: oilseed-rape, canola (Brassica napus); application rate 140 g ai/ha; post-emergent; 14 days after application; read-out: Visual Growth Reduction (%) 14 Days After Application, BRSNN

| SMILES | pest or weed control at 140 g/ha [%] |
| --- | --- |
| COc1c(N)nc(-c2cc(F)c(C)cc2F)nc1C(=O)O [Compound 201] | 95 to 100 |

Same assay, conditions: post-emergence, 336 h; CHEAL: lambsquarters (Chenopodium album); application rate 70 g ai/ha; post-emergent; 14 days after application; read-out: Visual Growth Reduction (%) 14 Days After Application, CHEAL

| SMILES | pest or weed control at 70 g/ha [%] |
| --- | --- |
| COc1c(N)nc(-c2cc(F)c(C)cc2F)nc1C(=O)O [Compound 201] | 85 to 94 |

Same assay, conditions: post-emergence, 336 h; CHEAL: lambsquarters (Chenopodium album); application rate 140 g ai/ha; post-emergent; 14 days after application; read-out: Visual Growth Reduction (%) 14 Days After Application, CHEAL

| SMILES | pest or weed control at 140 g/ha [%] |
| --- | --- |
| COc1c(N)nc(-c2cc(F)c(C)cc2F)nc1C(=O)O [Compound 201] | 75 to 84 |

Same assay, conditions: post-emergence, 336 h; EPHHL: wild poinsettia (Euphorbia heterophylla); application rate 70 g ai/ha; post-emergent; 14 days after application; read-out: Visual Growth Reduction (%) 14 Days After Application, EPHHL

| SMILES | pest or weed control at 70 g/ha [%] |
| --- | --- |
| COc1c(N)nc(-c2cc(F)c(C)cc2F)nc1C(=O)O [Compound 201] | 45 to 59 |

Same assay, conditions: post-emergence, 336 h; EPHHL: wild poinsettia (Euphorbia heterophylla); application rate 140 g ai/ha; post-emergent; 14 days after application; read-out: Visual Growth Reduction (%) 14 Days After Application, EPHHL

| SMILES | pest or weed control at 140 g/ha [%] |
| --- | --- |
| COc1c(N)nc(-c2cc(F)c(C)cc2F)nc1C(=O)O [Compound 201] | 85 to 94 |

Same assay, conditions: post-emergence, 336 h; HELAN: sunflower (Helianthus annuus); application rate 70 g ai/ha; post-emergent; 14 days after application; read-out: Visual Growth Reduction (%) 14 Days After Application, HELAN

| SMILES | pest or weed control at 70 g/ha [%] |
| --- | --- |
| COc1c(N)nc(-c2cc(F)c(C)cc2F)nc1C(=O)O [Compound 201] | 60 to 74 |

Same assay, conditions: post-emergence, 336 h; HELAN: sunflower (Helianthus annuus); application rate 140 g ai/ha; post-emergent; 14 days after application; read-out: Visual Growth Reduction (%) 14 Days After Application, HELAN

| SMILES | pest or weed control at 140 g/ha [%] |
| --- | --- |
| COc1c(N)nc(-c2cc(F)c(C)cc2F)nc1C(=O)O [Compound 201] | 75 to 84 |

Same assay, conditions: post-emergence, 336 h; VIOTR: wild pansy (Viola tricolor); application rate 70 g ai/ha; post-emergent; 14 days after application; read-out: Visual Growth Reduction (%) 14 Days After Application, VIOTR

| SMILES | pest or weed control at 70 g/ha [%] |
| --- | --- |
| COc1c(N)nc(-c2cc(F)c(C)cc2F)nc1C(=O)O [Compound 201] | 0 to 29 |

Same assay, conditions: post-emergence, 336 h; VIOTR: wild pansy (Viola tricolor); application rate 140 g ai/ha; post-emergent; 14 days after application; read-out: Visual Growth Reduction (%) 14 Days After Application, VIOTR

| SMILES | pest or weed control at 140 g/ha [%] |
| --- | --- |
| COc1c(N)nc(-c2cc(F)c(C)cc2F)nc1C(=O)O [Compound 201] | 0 to 29 |

Test system: Key Grass and Sedge Weeds as well as Grass Crops
Assay: Post-emergent Test II herbicidal activity (Table 6)
Assay type: in vivo
Details: post-emergence, 336 h, CYPES: yellow nutsedge (Cyperus esculentus), application rate 70 g ai/ha, read-out: Visual Growth Reduction (%) 14 Days After Application, CYPES
In short: as §1

| SMILES | pest or weed control at 70 g/ha [%] |
| --- | --- |
| COc1c(N)nc(-c2cc(F)c(C)cc2F)nc1C(=O)O [Compound 201] | 0 to 29 |

Same assay, conditions: post-emergence, 336 h, CYPES: yellow nutsedge (Cyperus esculentus), application rate 140 g ai/ha, read-out: Visual Growth Reduction (%) 14 Days After Application, CYPES

| SMILES | pest or weed control at 140 g/ha [%] |
| --- | --- |
| COc1c(N)nc(-c2cc(F)c(C)cc2F)nc1C(=O)O [Compound 201] | 0 to 29 |

Same assay, conditions: post-emergence, 336 h, DIGSA: crabgrass (Digitaria sanguinalis), application rate 70 g ai/ha, read-out: Visual Growth Reduction (%) 14 Days After Application, DIGSA

| SMILES | pest or weed control at 70 g/ha [%] |
| --- | --- |
| COc1c(N)nc(-c2cc(F)c(C)cc2F)nc1C(=O)O [Compound 201] | 0 to 29 |

Same assay, conditions: post-emergence, 336 h, DIGSA: crabgrass (Digitaria sanguinalis), application rate 140 g ai/ha, read-out: Visual Growth Reduction (%) 14 Days After Application, DIGSA

| SMILES | pest or weed control at 140 g/ha [%] |
| --- | --- |
| COc1c(N)nc(-c2cc(F)c(C)cc2F)nc1C(=O)O [Compound 201] | 0 to 29 |

Same assay, conditions: post-emergence, 336 h, ECHCG: barnyardgrass (Echinochloa crus-galli), application rate 70 g ai/ha, read-out: Visual Growth Reduction (%) 14 Days After Application, ECHCG

| SMILES | pest or weed control at 70 g/ha [%] |
| --- | --- |
| COc1c(N)nc(-c2cc(F)c(C)cc2F)nc1C(=O)O [Compound 201] | 60 to 74 |

Same assay, conditions: post-emergence, 336 h, ECHCG: barnyardgrass (Echinochloa crus-galli), application rate 140 g ai/ha, read-out: Visual Growth Reduction (%) 14 Days After Application, ECHCG

| SMILES | pest or weed control at 140 g/ha [%] |
| --- | --- |
| COc1c(N)nc(-c2cc(F)c(C)cc2F)nc1C(=O)O [Compound 201] | 45 to 59 |

Same assay, conditions: post-emergence, 336 h, ORYSA: rice (Oryza sativa), application rate 70 g ai/ha, read-out: Visual Growth Reduction (%) 14 Days After Application, ORYSA

| SMILES | pest or weed control at 70 g/ha [%] |
| --- | --- |
| COc1c(N)nc(-c2cc(F)c(C)cc2F)nc1C(=O)O [Compound 201] | 0 to 29 |

Same assay, conditions: post-emergence, 336 h, ORYSA: rice (Oryza sativa), application rate 140 g ai/ha, read-out: Visual Growth Reduction (%) 14 Days After Application, ORYSA

| SMILES | pest or weed control at 140 g/ha [%] |
| --- | --- |
| COc1c(N)nc(-c2cc(F)c(C)cc2F)nc1C(=O)O [Compound 201] | 0 to 29 |

Same assay, conditions: post-emergence, 336 h, SETFA: giant foxtail (Setaria faberi), application rate 70 g ai/ha, read-out: Visual Growth Reduction (%) 14 Days After Application, SETFA

| SMILES | pest or weed control at 70 g/ha [%] |
| --- | --- |
| COc1c(N)nc(-c2cc(F)c(C)cc2F)nc1C(=O)O [Compound 201] | 0 to 29 |

Same assay, conditions: post-emergence, 336 h, SETFA: giant foxtail (Setaria faberi), application rate 140 g ai/ha, read-out: Visual Growth Reduction (%) 14 Days After Application, SETFA

| SMILES | pest or weed control at 140 g/ha [%] |
| --- | --- |
| COc1c(N)nc(-c2cc(F)c(C)cc2F)nc1C(=O)O [Compound 201] | 30 to 44 |

Same assay, conditions: post-emergence, 336 h, SORVU: grain sorghum (Sorghum vulgare), application rate 70 g ai/ha, read-out: Visual Growth Reduction (%) 14 Days After Application, SORVU

| SMILES | pest or weed control at 70 g/ha [%] |
| --- | --- |
| COc1c(N)nc(-c2cc(F)c(C)cc2F)nc1C(=O)O [Compound 201] | 0 to 29 |

Same assay, conditions: post-emergence, 336 h, SORVU: grain sorghum (Sorghum vulgare), application rate 140 g ai/ha, read-out: Visual Growth Reduction (%) 14 Days After Application, SORVU

| SMILES | pest or weed control at 140 g/ha [%] |
| --- | --- |
| COc1c(N)nc(-c2cc(F)c(C)cc2F)nc1C(=O)O [Compound 201] | 45 to 59 |

Same assay, conditions: post-emergence, 336 h, TRZSS (wheat, Triticum aestivum), application rate 70 g ai/ha, read-out: Visual Growth Reduction (%) 14 Days After Application, TRZSS

| SMILES | pest or weed control at 70 g/ha [%] |
| --- | --- |
| COc1c(N)nc(-c2cc(F)c(C)cc2F)nc1C(=O)O [Compound 201] | 0 to 29 |

Same assay, conditions: post-emergence, 336 h, TRZSS (wheat, Triticum aestivum), application rate 140 g ai/ha, read-out: Visual Growth Reduction (%) 14 Days After Application, TRZSS

| SMILES | pest or weed control at 140 g/ha [%] |
| --- | --- |
| COc1c(N)nc(-c2cc(F)c(C)cc2F)nc1C(=O)O [Compound 201] | 0 to 29 |

Same assay, conditions: post-emergence, 336 h, ZEAMX: maize, corn (Zea mays), application rate 70 g ai/ha, read-out: Visual Growth Reduction (%) 14 Days After Application, ZEAMX

| SMILES | pest or weed control at 70 g/ha [%] |
| --- | --- |
| COc1c(N)nc(-c2cc(F)c(C)cc2F)nc1C(=O)O [Compound 201] | 0 to 29 |

Same assay, conditions: post-emergence, 336 h, ZEAMX: maize, corn (Zea mays), application rate 140 g ai/ha, read-out: Visual Growth Reduction (%) 14 Days After Application, ZEAMX

| SMILES | pest or weed control at 140 g/ha [%] |
| --- | --- |
| COc1c(N)nc(-c2cc(F)c(C)cc2F)nc1C(=O)O [Compound 201] | 0 to 29 |

Test system: not given
Assay: not given
Details: not given

| melting point [°C] | SMILES |
| --- | --- |
| 135.9 to 137.7 | COc1c(N)nc(-c2cc(F)c(C)cc2F)nc1C(=O)O [Compound 201] |

Source: patent US9113629B2, “4-amino-6-(4-substituted-phenyl)-picolinates and 6-amino-2-(4-substituted-phenyl)-pyrimidine-4-carboxylates and their use as herbicides” (DOW AGROSCIENCES LLC, priority 2013, dated 2015)
